# Like-named read-outs stand apart in the source and are kept apart here.
# Tests used:
# HCT116 WT cells = test: HCT116 proliferation assay, WT cells (CellTiter-Glo, 6 days); format: cell-based; conditions: read-out: Prolif_HCT116-WT IC50
# Method in brief: (§1)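 Both lines grow in RPMI 1640 containing 10% fetal bovine serum. After an overnight rest, they receive compound at up to 1 or 10 µM in threefold serial dilutions, with vehicle wells holding DMSO only.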
# PRMT5/MEP50 = PRMT5/MEP50 (Homo sapiens, UniProt O14744); test: MTase-Glo methyl transferase assay, Method B (FL-Histone H2A, 1 µM MTA, 1 h pre-incubation); format: biochemical; parameters: purchased Reaction Biology Corp RD-11-292; conditions: read-out: PRMT5 MTase Glo Ki (nM, Meth. B)
# Method in brief: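 PRMT5/MEP50 (4 nM) was pre-incubated 1 h with compound, 5 µM SAM and 1 µM MTA, then started with 2.5 µM FL-Histone H2A in Tris pH 8.0 buffer. After 20 h at room temperature, SAH was detected by MTase-Glo luminescence, and IC50/KI were fitted from dose-response curves.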
# HCT116 MTAP null cells = test: HCT116 proliferation assay, MTAP null cells (CellTiter-Glo, 6 days); format: cell-based; conditions: read-out: Protif_ HCT116-MTAP null IC50
# Method in brief: as §1
# Sequence of PRMT5/MEP50 (O14744 2-637 limits assumed): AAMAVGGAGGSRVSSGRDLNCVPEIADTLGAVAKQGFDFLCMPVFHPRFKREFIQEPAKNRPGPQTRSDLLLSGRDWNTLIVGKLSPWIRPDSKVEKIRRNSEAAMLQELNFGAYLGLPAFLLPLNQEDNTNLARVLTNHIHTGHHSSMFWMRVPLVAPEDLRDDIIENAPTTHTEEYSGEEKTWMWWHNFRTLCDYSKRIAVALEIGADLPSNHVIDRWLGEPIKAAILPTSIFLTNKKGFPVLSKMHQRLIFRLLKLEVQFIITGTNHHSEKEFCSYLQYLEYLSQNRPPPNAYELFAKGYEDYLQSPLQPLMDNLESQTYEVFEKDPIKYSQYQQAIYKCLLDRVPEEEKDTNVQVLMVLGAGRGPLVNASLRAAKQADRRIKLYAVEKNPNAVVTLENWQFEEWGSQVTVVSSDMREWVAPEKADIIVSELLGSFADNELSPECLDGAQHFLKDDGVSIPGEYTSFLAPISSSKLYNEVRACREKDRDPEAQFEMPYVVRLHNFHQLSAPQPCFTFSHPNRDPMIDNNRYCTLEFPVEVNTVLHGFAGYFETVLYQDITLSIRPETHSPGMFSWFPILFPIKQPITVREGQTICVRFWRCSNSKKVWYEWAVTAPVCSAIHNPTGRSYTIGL
# Sequence of PRMT5/MEP50 (Q9BQA1 2-342 partner limits assumed): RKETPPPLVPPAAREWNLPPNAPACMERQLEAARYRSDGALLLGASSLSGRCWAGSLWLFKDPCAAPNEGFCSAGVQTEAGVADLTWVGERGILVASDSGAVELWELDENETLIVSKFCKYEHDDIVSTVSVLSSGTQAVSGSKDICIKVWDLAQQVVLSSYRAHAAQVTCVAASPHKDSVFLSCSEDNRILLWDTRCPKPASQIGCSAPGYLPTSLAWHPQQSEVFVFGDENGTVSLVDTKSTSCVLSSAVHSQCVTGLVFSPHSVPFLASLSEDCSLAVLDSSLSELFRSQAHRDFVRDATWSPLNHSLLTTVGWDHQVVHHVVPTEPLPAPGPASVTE
Compound,"IC50 (HCT116 WT cells; Homo sapiens, HCT-116, 144 h)",Ki (PRMT5/MEP50),"IC50 (HCT116 MTAP null cells; HCT116-MTAP null, 144 h)",IC50 (HCT116 WT cells),IC50 (HCT116 MTAP null cells)
"Cc1cc2cc(C(=O)N(Cc3ccc(C(F)(F)F)cn3)CC3CCc4[nH]cnc4C3)ccc2nc1N (stereo not drawn) [Example 617, 2-amino-3-methyl-N-((4,5,6,7-tetrahydro-1H-benzo[d]imidazol-5-yl)methyl)-N-((5-(trifluoromethyl)pyridin-2-yl)methyl)quinoline-6-carboxamide]",> 1000 nM,1.72 nM,286 nM,–,–
"Cc1cc2cc(C(=O)N(Cc3ccc(C(F)(F)F)cn3)C[C@H]3CC[C@H](O)CC3)ccc2nc1N [Example 676, 2-amino-N-[(4-hydroxycyclohexyl)methyl]-3-methyl-N-[[5-(trifluoromethyl)-2-pyridyl]methyl] quinoline-6-carboxamide]",> 1000 nM,3.88 nM,255 nM,–,–
"Cc1csc(CN(Cc2ccc(C(F)(F)F)cn2)C(=O)c2ccc3nc(N)c(C)cc3c2)n1 [Example 708, 2-amino-3-methyl-N-[(4-methylthiazol-2-yl)methyl]-N-[[5-(trifluoromethyl)-2-pyridyl]methyl]quinoline-6-carboxamide]",> 1000 nM,2.79 nM,155 nM,–,–
"Cc1cc2cc(C(=O)N(Cc3cncc(F)c3)Cc3ccc(C(F)(F)F)cn3)ccc2nc1N [Example 597, 2-amino-N-((5-fluoropyridin-3-yl)methyl)-3-methyl-N-((5-(trifluoromethyl)pyridin-2-yl)methyl)quinoline-6-carboxamide]",> 1000 nM,6.35 nM,300 nM,–,–
"Cc1cc2cc(C(=O)N(Cc3ccc4[nH]ccc4c3)Cc3ccc(C(F)(F)F)cn3)ccc2nc1N [Example 623, N-((1H-indol-5-yl)methyl)-2-amino-3-methyl-N-((5-(trifluoromethyl)pyridin-2-yl)methyl)quinoline-6-carboxamide]",900 nM,3.14 nM,56 nM,–,–
"Cc1cc2cc(C(=O)N(Cc3ccc(C(F)(F)F)cn3)C3CC(C)(C)c4ccccc43)ccc2nc1N (stereo not drawn) [Example 594, 2-amino-N-(3,3-dimethyl-2,3-dihydro-1H-inden-1-yl)-3-methyl-N-((5-(trifluoromethyl)pyridin-2-yl)methyl)quinoline-6-carboxamide]",> 1000 nM,26 nM,640 nM,–,–
"Cc1cc2cc(C(=O)N(Cc3ccc(C(F)(F)F)cn3)CC3CCOCC3C)ccc2nc1N (stereo not drawn) [Example 596, 2-amino-3-methyl-N-((3-methyltetrahydro-2H-pyran-4-yl)methyl)-N-((5-(trifluoromethyl)pyridin-2-yl)methyl)quinoline-6-carboxamide]",> 10000 nM,17.1 nM,352 nM,–,–
"Cc1cc2cc(C(=O)N(Cc3ccc(C(F)(F)F)cn3)C3CCCc4[nH]ccc43)ccc2nc1N (stereo not drawn) [Example 603, 2-amino-3-methyl-N-(4,5,6,7-tetrahydro-1H-indol-4-yl)-N-((5-(trifluoromethyl)pyridin-2-yl)methyl)quinoline-6-carboxamide]",> 1500 nM,23.7 nM,317 nM,–,–
"Cc1cc2cc(C(=O)N(Cc3ccc(C(F)(F)F)cn3)C3CC3C3CC3)ccc2nc1N (stereo not drawn) [Example 705, 2-amino-N-(2-cyclopropylcyclopropyl)-3-methyl-N-[[5-(trifluoromethyl)-2-pyridyl]methyl] quinoline-6-carboxamide]",> 1000 nM,9.63 nM,760 nM,–,–
2-amino-3-methyl-N-[(4-methylthiazol-5-yl)methyl] -N-[[5-(trifluoromethyl)-2-pyridyl]methyl] quinoline-6-carboxamide [Example 565],–,2.77 nM,–,3490 nM,94 nM
"Cc1cc(N)nc2ccc(C(=O)N(Cc3ccc(C(F)(F)F)cn3)Cc3ncn(C)n3)cc12 [Example 710, 2-amino-4-methyl-N-[(1-methyl-1,2,4-triazol-3-yl)methyl]-N-[[5-(trifluoromethyl)-2-pyridyl]methyl] quinoline-6-carboxamide]",1140 nM,4.13 nM,177 nM,–,–
"Cc1cc2cc(C(=O)N(Cc3ccc(C(F)(F)F)cn3)C3CCCc4nn(C)cc43)ccc2nc1N (stereo not drawn) [Example 605, 2-amino-3-methyl-N-(2-methyl-4,5,6,7-tetrahydro-2H-indazol-4-yl)-N-((5-(trifluoromethyl)pyridin-2-yl)methyl)quinoline-6-carboxamide]",> 1300 nM,6.2 nM,145 nM,–,–
"Cc1cc2cc(C(=O)N(Cc3ccc(N)nc3)Cc3ccc(C(F)(F)F)cn3)ccc2nc1N [Example 568, 2-amino-N-[(6-amino-3-pyridyl)methyl]-3-methyl-N-[[5-(trifluoromethyl)-2-pyridyl]methyl] quinoline-6-carboxamide]",5550 nM,2 to 3 nM,130 nM,–,–
"Cc1cc2cc(C(=O)N(Cc3ccc(C(F)(F)F)cn3)C3CCCc4occc43)ccc2nc1N (stereo not drawn) [Example 606, 2-amino-3-methyl-N-(4,5,6,7-tetrahydrobenzofuran-4-yl)-N-((5-(trifluoromethyl)pyridin-2-yl)methyl)quinoline-6-carboxamide]",280 nM,2.9 nM,27 nM,–,–
"Cc1cc2cc(C(=O)N(Cc3ccc(C(F)(F)F)cn3)C3COc4ccccc43)ccc2nc1N (stereo not drawn) [Example 608, 2-amino-N-(2,3-dihydrobenzofuran-3-yl)-3-methyl-N-((5-(trifluoromethyl)pyridin-2-yl)methyl)quinoline-6-carboxamide]",> 1000 nM,5.26 nM,400 nM,–,–
"Cc1cc2cc(C(=O)N(Cc3cccc(O)c3)Cc3ccc(C(F)(F)F)cn3)ccc2nc1N [Example 600, 2-amino-N-[(3-hydroxyphenyl)methyl]-3-methyl-N-[[5-(trifluoromethyl)-2-pyridyl]methyl] quinoline-6-carboxamide]",> 1000 nM,1.83 nM,44 nM,–,–
"Cc1cc2cc(C(=O)N(Cc3ccc(C(F)(F)F)cn3)Cc3cocn3)ccc2nc1N [Example 580, 2-amino-3-methyl-N-(oxazol-4-ylmethyl)-N-[[5-(trifluoromethyl)-2-pyridyl]methyl] quinoline-6-carboxamide]",5600 nM,2.24 nM,110 nM,–,–

# More lines, in order of falling Ki (PRMT5/MEP50), values ahead:
"IC50 (HCT116 WT cells; Homo sapiens, HCT-116, 144 h)",Ki (PRMT5/MEP50),"IC50 (HCT116 MTAP null cells; HCT116-MTAP null, 144 h)",IC50 (HCT116 WT cells),IC50 (HCT116 MTAP null cells),Compound
–,25.1 nM,80 nM,> 1000 nM,–,"CO[C@@H]1COCC[C@H]1N(Cc1ccc(C(F)(F)F)cn1)C(=O)c1ccc2nc(N)c(C)cc2c1 [Example 704, 2-amino-N-[(3 S,4R)-3-methoxytetrahydropyran-4-yl]-3-methyl-N-[[5-(trifluoromethyl)-2-pyridyl]methyl] quinoline-6-carboxamide]"
> 1000 nM,13.2 nM,185 nM,–,–,"Cc1cc2cc(C(=O)N(Cc3ccc(C(F)(F)F)cn3)C3COCc4ccccc43)ccc2nc1N (stereo not drawn) [Example 593, 2-amino-N-(isochroman-4-yl)-3-methyl-N-((5-(trifluoromethyl)pyridin-2-yl)methyl)quinoline-6-carboxamide]"
> 1000 nM,9.42 nM,950 nM,–,–,"Cc1cc2cc(C(=O)N(Cc3ccc(C(F)(F)F)cn3)CC3CCn4ccnc4C3)ccc2nc1N (stereo not drawn) [Example 614, 2-amino-3-methyl-N-((5,6,7,8-tetrahydroimidazo [1,2-a]pyridin-7-yl)methyl)-N-((5-(trifluoromethyl)pyridin-2-yl)methyl)quinoline-6-carboxamide]"
> 1000 nM,7.26 nM,85 nM,–,–,"Cc1cc2cc(C(=O)N(Cc3ccc(C(F)(F)F)cn3)C3CCC(C)c4ccccc43)ccc2nc1N (stereo not drawn) [Example 602, 2-amino-3-methyl-N-(4-methyl-1,2,3,4-tetrahydronaphthalen-1-yl)-N-((5-(trifluoromethyl)pyridin-2-yl)methyl)quinoline-6-carboxamide]"
> 1000 nM,4.69 nM,270 nM,–,–,"Cc1cc2cc(C(=O)N(Cc3ccc(C(F)(F)F)cn3)C3CCc4nc(N)ncc4C3)ccc2nc1N (stereo not drawn) [Example 668, 2-amino-N-(2-amino-5,6,7,8-tetrahydroquinazolin-6-yl)-3-methyl-N-[ [5-(trifluoromethyl)-2-pyridyl]methyl] quinoline-6-carboxamide]"
3900 nM,4.35 nM,269 nM,–,–,"COC(CN(Cc1ccc(C(F)(F)F)cn1)C(=O)c1ccc2nc(N)c(C)cc2c1)C(C)C (stereo not drawn) [Example 613, 2-amino-N-(2-methoxy-3-methylbutyl)-3-methyl-N-((5-(trifluoromethyl)pyridin-2-yl)methyl)quinoline-6-carboxamide]"
> 10000 nM,2.39 nM,343 nM,–,–,"Cc1cc2cc(C(=O)N(Cc3ccc4[nH]c(=O)[nH]c4c3)Cc3ccc(C(F)(F)F)cn3)ccc2nc1N [Example 570, 2-amino-3-methyl-N-((2-oxo-2,3-dihydro-1H-benzo[d]imidazol-5-yl)methyl)-N-((5-(trifluoromethyl)pyridin-2-yl)methyl)quinoline-6-carboxamide]"
> 1000 nM,1.98 nM,130 nM,–,–,"Cc1cc2cc(C(=O)N(Cc3ccc4ccoc4c3)Cc3ccc(C(F)(F)F)cn3)ccc2nc1N [Example 622, 2-amino-N-(benzofuran-6-ylmethyl)-3-methyl-N-((5-(trifluoromethyl)pyridin-2-yl)methyl)quinoline-6-carboxamide]"
820 nM,1.78 nM,38 nM,–,–,"Cc1cc2cc(C(=O)N(Cc3ccc(C(F)(F)F)cn3)[C@@H]3CCc4ccccc43)ccc2nc1N [Example 601, 2-amino-N-[(1R)-indan-1-yl]-3-methyl-N-[[5-(trifluoromethyl)-2-pyridyl]methyl] quinoline-6-carboxamide]"

# — US20230159510A1, “NOVEL PRMT5 INHIBITORS” (AMGEN INC., priority 2020, published 2023)
